According to patent publication US9409952B2, “Peptide-compound cyclization method” (Chugai Seiyaku Kabushiki Kaisha, priority 2011, dated 2016):
Like-named read-outs stand apart in the source and are kept apart here. Starred links: 1 amine or outer side, 2 acyl side, 3 side chain; linkers in the order of their positions; H or OH if unused. Non-standard residues stand in square brackets, D forms with d. Residues, ends and D or L forms follow the SMILES beside them. *: point of attachment. Phe(4-CF3) = N[C@@H](Cc1ccc(C(F)(F)F)cc1)C(=O)O; NMePhe(3-Cl) = CN[C@@H](Cc1cccc(Cl)c1)C(=O)O; NMeF = CN[C@@H](Cc1ccccc1)C(=O)O; NMeI = CC[C@H](C)[C@H](NC)C(=O)O; NMeβAla = CN(CCC(=O)[*:2])[*:1]; NMeL = CN[C@@H](CC(C)C)C(=O)O; NMeV = CN[C@H](C(=O)O)C(C)C; NMeA = CN[C@@H](C)C(=O)O; dNMeA = CN[C@H](C)C(=O)O; β3hA = C[C@H](N)CC(=O)O; Sar = CNCC(=O)O; tBu = CC(C)(C)*

Columns and labels:
[1] = PAMPA (parallel artificial membrane permeability assay); type: in vitro ADME; settings: for Papp at 18 hours, 50 µM: PAMPA
In short: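 Artificial membrane was 10% (w/v) egg lecithin plus 0.5% (w/v) cholesterol in dodecane on a PVDF filter. A 10 mM DMSO stock was added at 0.5% (v/v) to donor buffer (50 mM MOPSO, pH 6.5, 5.0% glycocholic acid). After 18 h at 37 °C, LC/MS or LC/UV gave donor and acceptor levels for Pe.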

[2] = Metabolic stability in human hepatic microsome; type: in vitro ADME; settings: microsomes
[3] = membrane permeation rate (Pe), 50 mM MOPSO buffer pH 6.5 with 5.0% glycocholic acid, 37° C., 18 hours, read-out: iPAMPA Pe
[4] = pH 7.4, human hepatic microsome, NADPH(+), read-out: CL NADPH(+)
[5] = membrane permeation rate (Pe), 50 mM MOPSO buffer pH 6.5 with 5.0% glycocholic acid, 37° C., 18 hours

| Papp at 18 hours, 50 µM ([1]; pH 6.5) [×10⁻⁶ cm/s] | microsomal CLint at 1 uM ([2]; human, pH 7.4, CL NADPH(+)) [µL/min/mg] | Compound | Papp at 18 hours, 50 µM [1, 3] [×10⁻⁶ cm/s] | microsomal CLint at 1 uM [2, 4] [µL/min/mg] | iPAMPA Pe [1, 5] |
| --- | --- | --- | --- | --- | --- |
| – | – | CC(C)C[C@H]1C(=O)N[C@@H](COC(C)(C)C)C(=O)N[C@@H](C)CC(=O)N[C@H](C(C)C)C(=O)N(C)[C@@H](Cc2cccc(Cl)c2)C(=O)N(C)[C@@H](C)C(=O)N(C)[C@@H](CC(C)C)C(=O)N[C@@H]([C@@H](C)O)C(=O)N(C)[C@@H](C)C(=O)N1C [DP-801] (cyclo([NMeA][NMeL]S(tBu)[β3hA][dV][NMePhe(3-Cl)][NMeA][NMeL]T)) | 60 | 133 | – |
| – | – | CC(C)C[C@H]1C(=O)N(C)[C@@H](C)C(=O)N(C)[C@@H](CC(C)C)C(=O)N[C@@H]([C@@H](C)O)C(=O)N(C)[C@@H](C)C(=O)N(C)[C@@H](CC(C)C)C(=O)N[C@@H](COC(C)(C)C)C(=O)N[C@@H](C)CC(=O)N[C@H](C(C)C)C(=O)N1C [DP-802] (cyclo([NMeA][NMeL]S(tBu)[β3hA][dV][NMeL][NMeA][NMeL]T)) | 29 | 77 | – |
| – | – | CC[C@H](C)[C@H]1C(=O)N[C@@H](COC(C)(C)C)C(=O)N[C@@H](C)CC(=O)N(C)[C@@H](C)C(=O)N(C)[C@@H](Cc2cccc(Cl)c2)C(=O)N(C)CC(=O)N(C)[C@@H](CC(C)C)C(=O)N[C@@H]([C@@H](C)O)C(=O)N(C)[C@@H](C)C(=O)N(C)[C@@H](CC(C)C)C(=O)N1C [DP-803] (cyclo([NMeA][NMeL][NMeI]S(tBu)[β3hA][NMeA][NMePhe(3-Cl)][Sar][NMeL]T)) | 28 | 85 | – |
| – | – | CC[C@H](C)[C@H]1C(=O)N[C@@H](COC(C)(C)C)C(=O)N[C@@H](C)CC(=O)N(C)[C@@H](C)C(=O)N(C)[C@@H](CC(C)C)C(=O)N(C)CC(=O)N(C)[C@@H](CC(C)C)C(=O)N[C@@H]([C@@H](C)O)C(=O)N(C)[C@@H](C)C(=O)N(C)[C@@H](CC(C)C)C(=O)N1C [DP-804] (cyclo([NMeA][NMeL][NMeI]S(tBu)[β3hA][NMeA][NMeL][Sar][NMeL]T)) | 29 | 40 | – |
| – | – | CC[C@H](C)[C@@H]1NC(=O)[C@H](CC(C)C)N(C)C(=O)[C@H](C)NC(=O)CN(C)C(=O)[C@H](Cc2ccc(C(F)(F)F)cc2)NC(=O)[C@H]([C@@H](C)O)NC(=O)[C@H](CC(C)C)N(C)C(=O)CCN(C)C(=O)C[C@H](C)NC(=O)[C@H](CC(C)C)N(C)C(=O)[C@H](CC(C)C)N(C)C1=O [DP-805] (cyclo(A[NMeL]I[NMeL][NMeL][β3hA][NMeβAla][NMeL]T[Phe(4-CF3)][Sar])) | 41 | 169 | – |
| – | – | CC[C@H](C)[C@@H]1NC(=O)[C@H](CC(C)C)N(C)C(=O)[C@H](C)NC(=O)CN(C)C(=O)[C@H](CC(C)C)NC(=O)[C@H]([C@@H](C)O)NC(=O)[C@H](CC(C)C)N(C)C(=O)CCN(C)C(=O)C[C@H](C)NC(=O)[C@H](CC(C)C)N(C)C(=O)[C@H](CC(C)C)N(C)C1=O [DP-806] (cyclo(A[NMeL]I[NMeL][NMeL][β3hA][NMeβAla][NMeL]TL[Sar])) | 27 | 88 | – |
| 15 | 81 | CC[C@H](C)[C@@H]1NC(=O)[C@H](C)NC(=O)C[C@H](C)NC(=O)[C@H](CC(C)C)NC(=O)[C@H](CC(C)C)NC(=O)[C@H](C(C)C)NC(=O)[C@H](C)N(C)C(=O)[C@H](Cc2ccc(C(F)(F)F)cc2)NC(=O)CNC(=O)[C@H]([C@@H](C)O)NC(=O)[C@H](CC(C)C)N(C)C(=O)[C@@H]2CCCN2C1=O [DP-807] (cyclo(AIP[NMeL]TG[Phe(4-CF3)][NMeA]VLL[β3hA])) | – | – | – |
| 3.3 | 33 | CC[C@H](C)[C@@H]1NC(=O)[C@H](C)NC(=O)C[C@H](C)NC(=O)[C@H](CC(C)C)NC(=O)[C@H](CC(C)C)NC(=O)[C@H](C(C)C)NC(=O)[C@H](C)N(C)C(=O)[C@H](CC(C)C)NC(=O)CNC(=O)[C@H]([C@@H](C)O)NC(=O)[C@H](CC(C)C)N(C)C(=O)[C@@H]2CCCN2C1=O [DP-808] (cyclo(AIP[NMeL]TGL[NMeA]VLL[β3hA])) | – | – | – |
| – | – | CC(C)C[C@H]1C(=O)N(C)[C@@H](CC(C)C)C(=O)N[C@@H]([C@@H](C)O)C(=O)N(C)[C@@H](Cc2cccc(Cl)c2)C(=O)NCC(=O)N(C)[C@@H](C(C)C)C(=O)N[C@@H](Cc2ccc(C(F)(F)F)cc2)C(=O)N[C@@H](C)CC(=O)N(C)CCC(=O)N[C@@H](COC(C)(C)C)C(=O)N1C [DP-809] (cyclo(G[NMeV][Phe(4-CF3)][β3hA][NMeβAla]S(tBu)[NMeL][NMeL]T[NMePhe(3-Cl)])) | – | 201 | 7.0E−05 |
| 14 | 46 | CC[C@H](C)[C@H]1C(=O)NCC(=O)N(C)[C@@H](C)C(=O)N[C@@H](CC(C)C)C(=O)N[C@@H](C)CC(=O)N(C)[C@@H](C)C(=O)N[C@@H](CC(C)C)C(=O)N(C)[C@@H](C)C(=O)N[C@@H]([C@@H](C)O)C(=O)N2CCC[C@H]2C(=O)N(C)[C@@H](Cc2cccc(Cl)c2)C(=O)N[C@@H](Cc2ccc(C(F)(F)F)cc2)C(=O)N1C [DP-810] (cyclo(G[NMeA]L[β3hA][NMeA]L[NMeA]TP[NMePhe(3-Cl)][Phe(4-CF3)][NMeI])) | – | – | – |
| – | – | CC[C@H](C)[C@@H]1NC(=O)[C@H](C)N(C)C(=O)[C@@H](C)N(C)C(=O)C[C@H](C)NC(=O)[C@H](CC(C)C)N(C)C(=O)[C@H](C)N(C)C(=O)[C@H](Cc2cccc(Cl)c2)N(C)C(=O)[C@H]([C@@H](C)O)NC(=O)[C@H](Cc2cccc(Cl)c2)N(C)C(=O)[C@H](CC(C)C)N(C)C1=O [DP-811] (cyclo(I[NMeL][NMePhe(3-Cl)]T[NMePhe(3-Cl)][NMeA][NMeL][β3hA][dNMeA][NMeA])) | – | 241 | 7.0E−05 |
| – | – | CC[C@H](C)[C@@H]1NC(=O)[C@H](CC(C)C)N(C)C(=O)[C@H](Cc2cccc(Cl)c2)N(C)C(=O)[C@@H](C(C)C)NC(=O)C[C@H](C)NC(=O)[C@H](CC(C)C)N(C)C(=O)[C@H](C)N(C)C(=O)[C@H]([C@@H](C)O)NC(=O)[C@H](Cc2cccc(Cl)c2)N(C)C(=O)[C@H](C)N(C)C1=O [DP-812] (cyclo(I[NMeA][NMePhe(3-Cl)]T[NMeA][NMeL][β3hA][dV][NMePhe(3-Cl)][NMeL])) | 34 | 222 | – |
| – | – | CC[C@H](C)[C@@H]1NC(=O)[C@H](CC(C)C)N(C)C(=O)[C@H](CC(C)C)N(C)C(=O)[C@@H](C(C)C)NC(=O)C[C@H](C)NC(=O)[C@H](CC(C)C)N(C)C(=O)[C@H](C)N(C)C(=O)[C@H]([C@@H](C)O)NC(=O)[C@H](CC(C)C)N(C)C(=O)[C@H](C)N(C)C1=O [DP-813] (cyclo(I[NMeA][NMeL]T[NMeA][NMeL][β3hA][dV][NMeL][NMeL])) | 30 | 195 | – |
| – | – | CC(C)C[C@@H]1NC(=O)[C@H](C)NC(=O)C[C@H](C)NC(=O)[C@H](C(C)C)N(C)C(=O)[C@H](Cc2ccc(C(F)(F)F)cc2)NC(=O)[C@H](CC(C)C)N(C)C(=O)[C@H]([C@@H](C)O)NC(=O)[C@H](Cc2ccc(C(F)(F)F)cc2)NC(=O)[C@H](C)N(C)C(=O)CNC(=O)[C@H](CC(C)C)N(C)C(=O)[C@H](C)N(C)C1=O [DP-814] (cyclo(AL[NMeA][NMeL]G[NMeA][Phe(4-CF3)]T[NMeL][Phe(4-CF3)][NMeV][β3hA])) | 57 | 22 | – |
| 42 | 104 | CC[C@H](C)[C@H]1C(=O)NCC(=O)N[C@@H](C)CC(=O)N(C)[C@H](C)C(=O)N[C@@H](Cc2ccccc2)C(=O)N(C)[C@@H](CC(C)C)C(=O)N[C@@H](COC(C)(C)C)C(=O)N[C@@H](Cc2ccccc2)C(=O)N2CCC[C@H]2C(=O)N[C@@H]([C@@H](C)O)C(=O)N[C@@H](CC(C)C)C(=O)N1C [DP-815] (cyclo(F[NMeL]S(tBu)FPTL[NMeI]G[β3hA][dNMeA])) | – | – | – |
| – | – | CC[C@H](C)[C@H]1C(=O)N(C)[C@@H](C)C(=O)N(C)[C@@H](CC(C)C)C(=O)N[C@@H](COC(C)(C)C)C(=O)N(C)[C@@H](CC(C)C)C(=O)N[C@@H](C)CC(=O)N(C)[C@@H](C)C(=O)N(C)[C@@H](Cc2ccccc2)C(=O)N[C@@H](C)C(=O)N(C)[C@@H](CC(C)C)C(=O)N[C@@H]([C@@H](C)O)C(=O)N1C [DP-816] (cyclo(A[NMeL]T[NMeI][NMeA][NMeL]S(tBu)[NMeL][β3hA][NMeA][NMeF])) | 32 | 192 | – |
| – | – | CC[C@H](C)[C@H]1C(=O)N(C)[C@@H](C)C(=O)N(C)[C@@H](CC(C)C)C(=O)N[C@@H](COC(C)(C)C)C(=O)N(C)[C@@H](CC(C)C)C(=O)N[C@@H](C)CC(=O)N(C)[C@@H](C)C(=O)N(C)[C@@H](Cc2ccccc2)C(=O)N[C@@H](CC(C)C)C(=O)N(C)[C@@H](CC(C)C)C(=O)N[C@@H]([C@@H](C)O)C(=O)N1C [DP-817] (cyclo(L[NMeL]T[NMeI][NMeA][NMeL]S(tBu)[NMeL][β3hA][NMeA][NMeF])) | 25 | 165 | – |
| – | – | CC(C)C[C@@H]1NC(=O)[C@H](CC(C)C)N(C)C(=O)[C@H](C)NC(=O)[C@H](C(C)C)N(C)C(=O)CN(C)C(=O)[C@H]([C@@H](C)O)NC(=O)[C@H](C)N(C)C(=O)[C@H](CC(C)C)N(C)C(=O)[C@@H](C)NC(=O)C[C@H](C)NC1=O [DP-818] (cyclo(A[NMeL]L[β3hA][dA][NMeL][NMeA]T[Sar][NMeV])) | 2 | 1 | – |
| – | – | CC[C@H](C)[C@@H]1NC(=O)[C@H](C)N(C)C(=O)[C@H]([C@@H](C)O)NC(=O)[C@H](C(C)C)N(C)C(=O)[C@@H](C)N(C)C(=O)C[C@H](C)NC(=O)[C@H](Cc2ccccc2)NC(=O)[C@H](C)NC(=O)[C@H](Cc2ccccc2)N(C)C1=O [DP-819] (cyclo(AF[β3hA][dNMeA][NMeV]T[NMeA]I[NMeF])) | 30 | 134 | – |
